system: HCV replicon (NS5A1b) in Huh-7 cells; assay: microbe, parasite or virus in culture; assay type: cell-based; details: Hepatitis C virus, 72 h; NS5A1b; HCV replicon-containing Huh-7 cells, three days; read-out: EC50 (μM) NS5A1b
Method: Compounds claimed herein are tested for the ability to inhibit viral replication of the Hepatitis C replicon in cultured cells in which the HCV replicon construct has been incorporated. The HCV replicon system was described by Bartenschlager, et. al (Science, 285, pp. 110-113 (1999)). The replicon system is predictive of in vivo anti-HCV activity; compounds that are active in humans uniformly evidence activity in the replicon assay.
In this assay HCV replicon containing cells are treated with different concentrations of the test compound to ascertain the ability of the test compound to suppress replication of the HCV replicon. As a positive control, HCV replicon-containing cells are treated with different concentrations of interferon alpha, a known inhibitor of HCV replication. The replicon assay system includes Neomycin Phosphotransferase (NPT) as a component of the replicon itself in order to detect the transcription of replicon gene products in the host cell. Cells in which the HCV replicon is actively replicating have high levels of NPT; the level of NPT is proportional to HCV replication. […] The NPT level of each sample is measured using a captured ELISA.
A protocol for testing compounds for the ability to inhibit viral replication of the Hepatitis C replicon cultured cells in which the replicon construct has been incorporated, follows.
The HCV replicon contains, 5′-3′, the HCV-IRES, the neomycin phosphotransferase (neo) gene, the IRES of encephalomyocarditis virus, which directs translation of HCV sequences NS3 to NS5B, and the 3′-NTR. The sequence of the HCV replicon has been deposited in GenBank (Accession no. AJ242652).
The replicon is transfected into Huh-7 cells using standard methods such as electroporation.
The equipment and materials include, but are not limited to, Huh-7 HCV replicon-containing cells, maintenance media (DMEM (Dulbecco's modified Eagle media) supplemented with 10% FBS, L-glutamine, non-essential amino acids, penicillin (100 units/ml), streptomycin (100 micrograms/ml), and 500 micrograms/ml of Geneticin (G418), screening media (DMEM supplemented with 10% FBS, L-glutamine, non-essential amino acids, penicillin (100 units/ml) and streptomycin (100 micrograms/ml), 96 well tissue culture plates (flat bottom), 96 well plates (U bottom for drug dilution), Interferon alpha for positive control, fixation reagent (such as methanol: acetone), primary antibody (rabbit anti-NPTII), secondary antibody: Eu-N1 1, and enhancement solution.
HCV replicon-containing cells support high levels of viral RNA replicon replication when their density is suitable. Over-confluency causes decreased viral RNA replication. Therefore, cells must be kept growing in log phase in the presence of 500 micrograms/ml of G418. Generally, cells should be passed twice a week at 1:4-6 dilution. Cell maintenance is conducted as follows:
HCV replicon-containing cells are examined under a microscope to ensure that cells growing well. Cells are rinsed once with PBS and 2 ml trypsin is added. The cell/trypsin mixture is incubated at 37° C. in a CO2 incubator for 3-5 minutes. After incubation 10 ml of complete media is added to stop the trypsinization reaction. Cells are blown gently, put into a 15 ml tube, and spun at 1200 rpm for 4 minutes. The trypsin/medium solution is removed. Medium (5 ml) is added and the cells are mixed carefully. The cells are counted.
The cells are then seeded onto 96-well plates at a density of 6000-7500 cells/100 microliters/well (6-7.5×10^5 cells/10 ml/plate). The plates are then incubated at 37° C. in a 5% CO2 incubator.
Cells are examined under a microscope approximated 24 hours after seeding and prior to adding drugs. If counting and dilution were performed correctly, cells are 60-70% confluent and nearly all cells should attach and spread evenly in the well.
HCV replicon-containing cells are rinsed with once PBS once; 2 mls of trypsin are then added. Cells are incubated at 37° C. in a 5% CO2 incubator for 3-5 minutes. […]

Point of comparison: `COC(=O)N[C@H](C(=O)N1[C@H](c2nc3cc(-c4cc5ccc4CCc4ccc(c(-c6ccc7[nH]c([C@@H]8C[C@@H]9CCCC[C@@H]9N8C(=O)[C@@H](NC(=O)OC)[C@@H](C)OC)nc7c6)c4)CC5)ccc3[nH]2)C[C@@H]2CCCC[C@@H]21)[C@@H](C)OC` [Compound 111], EC50 0.005 nM. Against it:
- COC(=O)N[C@H](C(=O)N1[C@H](c2nc(-c3ccc(-c4cc5ccc4CCc4ccc(c(-c6ccc(-c7c[nH]c([C@@H]8C[C@@H]9CCCC[C@@H]9N8C(=O)[C@@H](NC(=O)OC)c8ccccc8)n7)cc6)c4)CC5)cc3)c[nH]2)C[C@@H]2CCCC[C@@H]21)c1ccccc1 [Compound 62] — 15000-fold higher, 75 nM
- C=CCOC(=O)N[C@H](C(=O)N1CCC[C@H]1c1nc(-c2ccc(-c3cc4ccc3CCc3ccc(c(-c5ccc(-c6c[nH]c([C@@H]7CCCN7C(=O)[C@@H](NC(=O)OCC=C)c7ccccc7)n6)cc5)c3)CC4)cc2)c[nH]1)c1ccccc1 [Compound 59] — far higher, 548 nM
- COC(=O)N[C@H](C(=O)N1C(c2nc3ccc(-c4cc5ccc4CCc4ccc(c(-c6ccc7nc(C8C[C@@H]9CCCC[C@@H]9N8C(=O)[C@@H](NC(=O)OC)C(C)C)n(COC(=O)[C@@H](N)C(C)C)c7c6)c4)CC5)cc3n2COC(=O)[C@@H](N)C(C)C)C[C@@H]2CCCC[C@@H]21)C(C)C (some centres unmarked) [Compound 130] — 1.8-fold higher, 0.009 nM
- COC(=O)N[C@H](C(=O)N1CCC[C@H]1c1ncc(-c2ccc(C34CC(c5ccc(-c6cnc([C@@H]7CCCN7C(=O)[C@@H](NC(=O)OC)C(C)C)[nH]6)cc5)(C3)C4)cc2)[nH]1)C(C)C [Compound 44] — 820-fold higher, 4.08 nM
- C=CCOC(=O)N1CCC[C@H]1C(=O)N1CCC[C@H]1c1nc(-c2ccc(-c3cc4ccc3CCc3ccc(c(-c5ccc(-c6c[nH]c([C@@H]7CCCN7C(=O)[C@@H]7CCCN7C(=O)OCC=C)n6)cc5)c3)CC4)cc2)c[nH]1 [Compound 58] — higher, > 1000 nM
- COC(=O)N[C@H](C(=O)N1CCC[C@H]1c1nc2cc(-c3cc4ccc3CCc3ccc(c(-c5ccc6[nH]c([C@@H]7CCCN7C(=O)[C@@H](NC(=O)OC)C(C)C)nc6c5)c3)CC4)ccc2[nH]1)C(C)C [Compound 45] — not separable, < 3.2 nM
- COC(=O)N[C@H](C(=O)N1CCC[C@H]1c1nc(-c2ccc(-c3cc4ccc3CCc3ccc(c(-c5ccc(-c6c[nH]c([C@@H]7CCCN7C(=O)[C@@H](NC(=O)OC)c7ccccc7)n6)cc5)c3)CC4)cc2)c[nH]1)c1ccccc1 [Compound 52] — 2000-fold higher, 9.83 nM
- COC(=O)N[C@H](C(=O)N1C[C@H](C)C[C@H]1c1nc2cc(-c3cc4ccc3CCc3ccc(c(-c5ccc6[nH]c([C@@H]7C[C@@H](C)CN7C(=O)[C@@H](NC(=O)OC)C(C)C)nc6c5)c3)CC4)ccc2[nH]1)C(C)C [Compound 66] — the same, 0.005 nM
- COC(=O)N[C@@H](CCSC)C(=O)N1[C@H](c2nc(-c3ccc(-c4cc5ccc4CCc4ccc(c(-c6ccc(-c7c[nH]c([C@@H]8C[C@@H]9CCCC[C@@H]9N8C(=O)[C@H](CCSC)NC(=O)OC)n7)cc6)c4)CC5)cc3)c[nH]2)C[C@@H]2CCCC[C@@H]21 [Compound 61] — 15000-fold higher, 75.2 nM
- COC(=O)N[C@H](C(=O)N1[C@H](c2nc3cc(-c4cc5ccc4CCc4ccc(c(-c6ccc7[nH]c([C@@H]8C[C@@H]9CCCC[C@@H]9N8C(=O)[C@@H](NC(=O)OC)C(C)C)nc7c6)c4)CC5)ccc3[nH]2)C[C@@H]2CCCC[C@@H]21)C(C)C [Compound 43] — 570-fold higher, 2.85 nM
- COC(=O)N[C@H](C(=O)N1[C@H](c2nc3cc(-c4cc5ccc4CCc4ccc(c(-c6ccc7[nH]c([C@@H]8C[C@@H]9CCCC[C@@H]9N8C(=O)[C@@H](NC(=O)OC)[C@@H](C)O)nc7c6)c4)CC5)ccc3[nH]2)C[C@@H]2CCCC[C@@H]21)[C@@H](C)O [Compound 128] — 1.6-fold higher, 0.008 nM
- C=CCOC(=O)N[C@@H](CCSC)C(=O)N1CCC[C@H]1c1nc(-c2ccc(-c3cc4ccc3CCc3ccc(c(-c5ccc(-c6c[nH]c([C@@H]7CCCN7C(=O)[C@H](CCSC)NC(=O)OCC=C)n6)cc5)c3)CC4)cc2)c[nH]1 [Compound 57] — higher, > 1000 nM
- COC(=O)N1CCC[C@H]1C(=O)N1CCC[C@H]1c1nc2cc(-c3cc4ccc3CCc3ccc(c(-c5ccc6[nH]c([C@@H]7CCCN7C(=O)[C@@H]7CCCN7C(=O)OC)nc6c5)c3)CC4)ccc2[nH]1 [Compound 51] — higher, > 1000 nM
- COC(=O)N[C@H](C(=O)N1CCC[C@H]1c1nc2cc(-c3cc4ccc3CCc3ccc(c(-c5ccc6[nH]c([C@@H]7CCCN7C(=O)[C@@H](NC(=O)OC)c7ccccc7)nc6c5)c3)CC4)ccc2[nH]1)c1ccccc1 [Compound 49] — 2000-fold higher, 10.2 nM
- COC(=O)N[C@@H](CCSC)C(=O)N1CCC[C@H]1c1nc(-c2ccc(-c3cc4ccc3CCc3ccc(c(-c5ccc(-c6c[nH]c([C@@H]7CCCN7C(=O)[C@H](CCSC)NC(=O)OC)n6)cc5)c3)CC4)cc2)c[nH]1 [Compound 53] — 42000-fold higher, 211 nM
- COC(=O)N1CCC[C@H]1C(=O)N1CCC[C@H]1c1nc(-c2ccc(-c3cc4ccc3CCc3ccc(c(-c5ccc(-c6c[nH]c([C@@H]7CCCN7C(=O)[C@@H]7CCCN7C(=O)OC)n6)cc5)c3)CC4)cc2)c[nH]1 [Compound 54] — higher, > 1000 nM
- COC(=O)N[C@@H](CCC#N)C(=O)N1[C@H](c2nc3cc(-c4cc5ccc4CCc4ccc(c(-c6ccc7[nH]c([C@@H]8C[C@@H]9CCCC[C@@H]9N8C(=O)[C@H](CCC#N)NC(=O)OC)nc7c6)c4)CC5)ccc3[nH]2)C[C@@H]2CCCC[C@@H]21 [Compound 110] — within 1.5-fold, 0.006 nM
- COC(=O)N[C@H](C(=O)N1CCC[C@H]1c1nc(-c2ccc(-c3cc4c(-c5c[nH]c([C@@H]6CCCN6C(=O)[C@@H](NC(=O)OC)C(C)C)n5)cc3CCc3ccc(cc3)CC4)cc2)c[nH]1)C(C)C [Compound 46] — not separable, < 3.17 nM
- COC(=O)N[C@H](C(=O)N1CCC[C@H]1c1nc(-c2ccc(-c3cc4ccc3CCc3ccc(c(-c5ccc(-c6c[nH]c([C@@H]7CCCN7C(=O)[C@@H](NC(=O)OC)C(C)C)n6)cc5)c3)CC4)cc2)c[nH]1)C(C)C [Compound 40] — 2.4-fold higher, 0.012 nM
- COC(=O)N1CCC[C@H]1C(=O)N1[C@H](c2nc(-c3ccc(-c4cc5ccc4CCc4ccc(c(-c6ccc(-c7c[nH]c([C@@H]8C[C@@H]9CCCC[C@@H]9N8C(=O)[C@@H]8CCCN8C(=O)OC)n7)cc6)c4)CC5)cc3)c[nH]2)C[C@@H]2CCCC[C@@H]21 [Compound 63] — far higher, 899 nM
- COC(=O)N[C@@H](CCSC)C(=O)N1CCC[C@H]1c1nc2cc(-c3cc4ccc3CCc3ccc(c(-c5ccc6[nH]c([C@@H]7CCCN7C(=O)[C@H](CCSC)NC(=O)OC)nc6c5)c3)CC4)ccc2[nH]1 [Compound 50] — 1700-fold higher, 8.41 nM
- COC(=O)N[C@H](C(=O)N1CCC[C@H]1c1nc(-c2ccc(-c3cc4ccc3CCc3ccc(c(-c5c[nH]c([C@@H]6CCCN6C(=O)[C@@H](NC(=O)OC)C(C)C)n5)c3)CC4)cc2)c[nH]1)C(C)C [Compound 47] — 1000-fold higher, 5.02 nM

same assay, conditions: Hepatitis C virus, Huh-7; Example 9 replicon assay; read-out: EC50 values in HCV replicon assay

`CC(C)(C)OC(=O)N1[C@H](c2nc3ccc(B4OC(C)(C)C(C)(C)O4)cc3[nH]2)C[C@@H]2CCCC[C@@H]21` [Compound 16, (2S,3aS,7aS)-tert-butyl 2-(6-(4,4,5,5-tetramethyl-1,3,2-dioxaborolan-2-yl)-1H-benzo[d]imidazol-2-yl)octahydro-1H-indole-1-carboxylate] and `CC(C)(C)OC(=O)Nc1ccc(B2OC(C)(C)C(C)(C)O2)cc1NC(=O)OC(C)(C)C` [Compound 25, di-tert-butyl (4-(4,4,5,5-tetramethyl-1,3,2-dioxaborolan-2-yl)-1,2-phenylene)dicarbamate] cannot be ordered by EC50: no more than 10000 nM for the first, no more than 10000 nM for the second.

`COC(=O)N[C@H](C(=O)N1CCC[C@H]1c1nc(-c2ccc(-c3cc4ccc3CCc3ccc(c(-c5ccc(-c6c[nH]c([C@@H]7CCCN7C(=O)[C@@H](NC(=O)OC)C(C)C)n6)cc5)c3)CC4)cc2)c[nH]1)C(C)C` [Compound 40] gave an EC50 of no more than 10000 nM.
